Measured values reported in patent US8445505B2 (IRM LLC, priority 2008, dated 2013).

target: IGF1R Ba/F3 (Homo sapiens, UniProt P08069); test: Ba/F3 Cell Viability Inhibition Assay (Tel-TK transformed Ba/F3 lines); type: cell-based, murine; design: the printed alternative; details: Tel-TK (IGF1R) transformed Ba/F3 cells, 48 hours incubation, cell viability (Britelite luminescence)
Source text: Ba/F3 is a murine IL-3-dependent pro-B lymphoma cell line. Parental Ba/F3 cells are used to generate a panel of sublines whose proliferation and survival is rendered IL-3-independent by stable transduction with individual tyrosine kinases activated by fusion with the amino-terminal portion of TEL (amino acid 1-375) or BCR. In order to generate Ba/F3 cell lines transformed by Tel-Tyrosine Kinase (TK) fusions, parental Ba/F3 cells are infected with a retrovirus harboring each TEL-fusion kinase and subjected to puromycin selection and IL-3 withdrawal to obtain IL-3-independent, transformed Ba/F3 cells.
Each transformed Ba/F3 cells are cultured in RPMI-1640 media (Gibco Cat #11875093, Carlsbad, Calif.) supplemented with 10% FBS (Hyclone Cat #SV30014.03, Logan, Utah), 4.5 g/L glucose (Sigma #G5400, St.Louis, Mo.), 1.5 g/L sodium bicarbonate (Biowhittaker #17-613E, Walkersville, Md.) and Pen/Strep (Gibco #10378-016, Carlsbad, Calif.). Cells are splitted twice weekly.
The potency of test compounds against various Tel-TK transformed Ba/F3 lines is determined as follows. Exponentially growing BaF3 Tel-TK cells are diluted in fresh medium to 75,000 cells/mL and seeded into 384-well plates (3750 cells/well) at 50 μL/well using a gill liquid dispenser (BioTek, Winooski, Vt., USA). Duplicate plates are run for each cell line. Test and control compounds are serially diluted with DMSO and arrayed in a polypropylene 384-well plate. 50 nL of compound is transferred into the assay plates using a pin-transfer device, and the plates are incubated at 37° C. (5% CO2) for 48 hours. 25 μL Britelite (Perkin Elmer) is added and luminescence is quantified using Analyst GT (Molecular Devices). Custom curve-fitting software is used to produce a logistic fit of percent cell viability as a function of the logarithm of inhibitor concentration. The IC50 is interpolated as the concentration of compound needed to reduce cell viability to 50% of a DMSO control. Parental Ba/F3 cells that are maintained and cultured in presence of IL-3 (1 ng/ml in final) are diluted in fresh medium containing IL-3 (1 ng/ml in final) to 75,000 cells/mL following the same procedure as described above.

Chain of IGF1R Ba/F3 (P08069 999-1274 limits assumed): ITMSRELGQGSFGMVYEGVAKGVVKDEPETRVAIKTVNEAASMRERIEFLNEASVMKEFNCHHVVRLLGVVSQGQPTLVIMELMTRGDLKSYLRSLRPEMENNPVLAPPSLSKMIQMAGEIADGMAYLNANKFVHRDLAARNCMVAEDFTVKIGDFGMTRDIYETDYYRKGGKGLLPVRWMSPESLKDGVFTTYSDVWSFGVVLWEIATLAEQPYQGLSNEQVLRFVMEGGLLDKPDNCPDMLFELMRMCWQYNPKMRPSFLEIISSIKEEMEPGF

Structure (SMILES)	IC50 [nM]
Cc1cc(Nc2nc(Nc3cc(C)c(-c4cnn(C)c4)cc3F)ncc2Cl)n[nH]1 [Compound 1, 5-chloro-N2-(2-fluoro-5-methyl-4-(1-methyl-1H-pyrazol-4-yl)phenyl)-N4-(5-methyl-1H-pyrazol-3-yl)pyrimidine-2,4-diamine]	67
Cc1cc(Nc2nc(Nc3cc(C)c(-c4ccncc4)cc3F)ncc2Cl)n[nH]1 [Compound 2, 5-chloro-N2-(2-fluoro-5-methyl-4-(pyridin-4-yl)phenyl)-N4-(5-methyl-1H-pyrazol-3-yl)pyrimidine-2,4-diamine]	103
Cc1cc(Nc2nc(Nc3cc(C)c(-c4cccnc4)cc3F)ncc2Cl)n[nH]1 [Compound 3, 5-chloro-N2-(2-fluoro-5-methyl-4-(pyridin-3-yl)phenyl)-N4-(5-methyl-1H-pyrazol-3-yl)pyrimidine-2,4-diamine]	67
CNC(=O)c1ccc(-c2cc(F)c(Nc3ncc(Cl)c(Nc4cc(C)[nH]n4)n3)cc2C)cn1 [Compound 4, 5-(4-(5-chloro-4-(5-methyl-1H-pyrazol-3-ylamino)pyrimidin-2-ylamino)-5-fluoro-2-methylphenyl)-N-methylpicolinamide]	89
Cc1ccc(-c2cc(F)c(Nc3ncc(Cl)c(Nc4cc(C)[nH]n4)n3)cc2C)cn1 [Compound 5, 5-chloro-N2-(2-fluoro-5-methyl-4-(6-methylpyridin-3-yl)phenyl)-N4-(5-methyl-1H-pyrazol-3-yl)pyrimidine-2,4-diamine]	137
Cc1cc(Nc2nc(Nc3cc(C)c(-c4ccccn4)cc3F)ncc2Cl)n[nH]1 [Compound 6, 5-chloro-N2-(2-fluoro-5-methyl-4-(pyridin-2-yl)phenyl)-N4-(5-methyl-1H-pyrazol-3-yl)pyrimidine-2,4-diamine]	294
Cc1cc(Nc2nc(Nc3cc(C)c(-c4cnc5ccccc5c4)cc3F)ncc2Cl)n[nH]1 [Compound 7, 5-chloro-N2-(2-fluoro-5-methyl-4-(quinolin-3-yl)phenyl)-N4-(5-methyl-1H-pyrazol-3-yl)pyrimidine-2,4-diamine]	579
Cc1cc(Nc2nc(Nc3cc(C)c(-c4ccc(O)nc4)cc3F)ncc2Cl)n[nH]1 [Compound 8, 5-(4-(5-chloro-4-(5-methyl-1H-pyrazol-3-ylamino)pyrimidin-2-ylamino)-5-fluoro-2-methylphenyl)pyridin-2-ol]	55
Cc1cc(-c2cc(F)c(Nc3ncc(Cl)c(Nc4cc(C)[nH]n4)n3)cc2C)ccn1 [Compound 9, 5-chloro-N2-(2-fluoro-5-methyl-4-(2-methylpyridin-4-yl)phenyl)-N4-(5-methyl-1H-pyrazol-3-yl)pyrimidine-2,4-diamine]	94
Cc1cc(Nc2nc(Nc3cc(C)c(-c4ccsc4)cc3F)ncc2Cl)n[nH]1 [Compound 10, 5-chloro-N2-(2-fluoro-5-methyl-4-(thiophen-3-yl)phenyl)-N4-(5-methyl-1H-pyrazol-3-yl)pyrimidine-2,4-diamine]	833
Cc1cc(Nc2nc(Nc3cc(C)c(-c4ccoc4)cc3F)ncc2Cl)n[nH]1 [Compound 11, 5-chloro-N2-(2-fluoro-4-(furan-3-yl)-5-methylphenyl)-N4-(5-methyl-1H-pyrazol-3-yl)pyrimidine-2,4-diamine]	683
Cc1cc(Nc2nc(Nc3cc(C)c(-c4cnn(C)c4)cc3C)ncc2Cl)n[nH]1 [Compound 12, 5-chloro-N2-(2,5-dimethyl-4-(1-methyl-1H-pyrazol-4-yl)phenyl)-N4-(5-methyl-1H-pyrazol-3-yl)pyrimidine-2,4-diamine]	25
CNC(=O)c1ccc(-c2cc(C)c(Nc3ncc(Cl)c(Nc4cc(C)[nH]n4)n3)cc2C)cn1 [Compound 14, 5-(4-(5-chloro-4-(5-methyl-1H-pyrazol-3-ylamino)pyrimidin-2-ylamino)-2,5-dimethylphenyl)-N-methylpicolinamide]	15
Cc1cc(-c2cc(C)c(Nc3ncc(Cl)c(Nc4cc(C)[nH]n4)n3)cc2C)ccn1 [Compound 15, 5-chloro-N2-(2,5-dimethyl-4-(2-methylpyridin-4-yl)phenyl)-N4-(5-methyl-1H-pyrazol-3-yl)pyrimidine-2,4-diamine]	39
Cc1ccc(-c2cc(C)c(Nc3ncc(Cl)c(Nc4cc(C)[nH]n4)n3)cc2C)cn1 [Compound 16, 5-chloro-N2-(2,5-dimethyl-4-(6-methylpyridin-3-yl)phenyl)-N4-(5-methyl-1H-pyrazol-3-yl)pyrimidine-2,4-diamine]	30
Cc1cc(Nc2nc(Nc3cc(C)c(-c4ncc[nH]4)cc3C)ncc2Cl)n[nH]1 [Compound 17, N2-(4-(1H-imidazol-2-yl)-2,5-dimethylphenyl)-5-chloro-N4-(5-methyl-1H-pyrazol-3-yl)pyrimidine-2,4-diamine]	68
Cc1cc(-c2cc(C)c(Nc3ncc(Cl)c(Nc4cc(C)[nH]n4)n3)cc2C)on1 [Compound 18, 5-chloro-N2-(2,5-dimethyl-4-(3-methylisoxazol-5-yl)phenyl)-N4-(5-methyl-1H-pyrazol-3-yl)pyrimidine-2,4-diamine]	276
Cc1cc(Nc2nc(Nc3cc(C)c(-c4ncc[nH]4)cc3F)ncc2Cl)n[nH]1 [Compound 19, 5-chloro-N2-(2-fluoro-4-(1H-imidazol-2-yl)-5-methylphenyl)-N4-(5-methyl-1H-pyrazol-3-yl)pyrimidine-2,4-diamine]	288
Cc1cc(Nc2nc(Nc3cc(C)c(-c4cnco4)cc3C)ncc2Cl)n[nH]1 [Compound 20, 5-chloro-N2-(2,5-dimethyl-4-(oxazol-5-yl)phenyl)-N4-(5-methyl-1H-pyrazol-3-yl)pyrimidine-2,4-diamine]	109
COc1cc(-c2cnco2)c(C)cc1Nc1ncc(Cl)c(Nc2cc(C)[nH]n2)n1 [Compound 21, 5-chloro-N2-(2-methoxy-5-methyl-4-(oxazol-5-yl)phenyl)-N4-(5-methyl-1H-pyrazol-3-yl)pyrimidine-2,4-diamine]	169
Cc1cc(-c2cc(C)c(Nc3ncc(Cl)c(Nc4cc(C)[nH]n4)n3)cc2C)[nH]n1 [Compound 22, 5-chloro-N2-(2,5-dimethyl-4-(3-methyl-1H-pyrazol-5-yl)phenyl)-N4-(5-methyl-1H-pyrazol-3-yl)pyrimidine-2,4-diamine]	166
Cc1cc(Nc2nc(Nc3cc(C)c(-c4csc(C)n4)cc3C)ncc2Cl)n[nH]1 [Compound 24, 5-chloro-N2-(2,5-dimethyl-4-(2-methylthiazol-4-yl)phenyl)-N4-(5-methyl-1H-pyrazol-3-yl)pyrimidine-2,4-diamine]	106
Cc1cc(Nc2nc(Nc3cc(C)c(-c4nccn4C)cc3C)ncc2Cl)n[nH]1 [Compound 25, 5-chloro-N2-(2,5-dimethyl-4-(1-methyl-1H-imidazol-2-yl)phenyl)-N4-(5-methyl-1H-pyrazol-3-yl)pyrimidine-2,4-diamine]	71
Cc1cc(Nc2nc(Nc3cc(F)c(-c4cnn(C)c4)cc3C)ncc2Cl)n[nH]1 [Compound 27, 5-chloro-N2-(5-fluoro-2-methyl-4-(1-methyl-1H-pyrazol-4-yl)phenyl)-N4-(5-methyl-1H-pyrazol-3-yl)pyrimidine-2,4-diamine]	549
C/C(=N\OCCO)c1cc(C)c(Nc2ncc(Cl)c(Nc3cc(C)[nH]n3)n2)cc1C [Compound 28, 1-(4-(5-chloro-4-(5-methyl-1H-pyrazol-3-ylamino)pyrimidin-2-ylamino)-2,5-dimethylphenyl)ethanone O-2-hydroxyethyloxime]	141
